Data: the supplement of paper PMC4862054
Several values for one entry are separate records, joined by “and”; a condition that tells them apart may be missing. Equal values may be shown once.

Key:
[1] = test system: HCC1143; experiment: normalised viability (% of control), CellTiter-Blue; higher = more viable cells (about 100 = DMSO control); settings: incubation time: 72 h
Method in brief: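 Each value is normalised viability at a single listed concentration of the series. Breast cancer cell lines in 384-well plates were incubated 72 h with compound and read by CellTiter-Blue fluorescence at 560/590 nm, with vehicle set to 100 and a positive kill control to 0 on every plate.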

[2] = test system: CAL-85-1; settings: 72 h
Protocol: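 Drug sensitivity and resistance testing (DSRT) of breast cancer cell lines in 384-well plates, 5 concentrations in 10-fold dilutions over a compound-specific 10,000-fold range. After 72 h, cytotoxicity was read by CellTox Green fluorescence and viability by CellTiter-Glo luminescence (multiplexed), normalised to DMSO and benzethonium chloride controls. EC50 is the inflection point of the fitted dose-response curve (bottom asymptote free, so it can be relative for partial curves) and is censored at the highest tested concentration. Rows with DSS 0 (no meaningful response) were excluded.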

[3] = test system: MFM-223; settings: 72 h
Method in brief: (§1)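 Breast cancer cell lines in 20 µl suspension were seeded onto 384-well plates pre-loaded with compound dissolved in 5 µl medium, then incubated 72 h. For viability, 2.5 µl CellTiter-Blue was added for 2 h at 37 °C and fluorescence read at 560/590 nm. Each plate was normalised to vehicle and a positive kill control and checked by Z'-factor. EC50 comes from the fitted percent-inhibition dose-response curve, censored at the highest concentration; rows with zero drug sensitivity score were dropped.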

[4] = test system: CAL-120; settings: 72 h
Method in brief: as §1

[5] = test system: HCC1143; settings: 72 h
Method in brief: as §1

[6] = test system: MDA-MB-436; settings: 72 h
Method in brief: as §1

[7] = test system: HCC1599; settings: 72 h
Method in brief: as §1

[8] = test system: BT-549; settings: 72 h
Method in brief: as §1

[9] = test system: MFM-223; settings: 72 h; remark: listed apart in the source
Method in brief: (§2)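 In this assay, breast cancer cell lines spent 72 h with compound at 5 concentrations in 10-fold steps over a compound-specific 10,000-fold range. The first readout was cell death by CellTox Green fluorescence, and the second was viability by CellTiter-Glo luminescence, each normalised per plate to 0.1 % DMSO and a positive kill control. EC50 came from the dose-response curves, censored at the top concentration.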

[10] = test system: BT-474; settings: 72 h
Method in brief: as §2

[11] = test system: CAL-120; settings: 72 h; remark: listed apart in the source
Method in brief: as §2

[12] = test system: CAL-51; settings: 72 h
Method in brief: as §2

[13] = test system: MDA-MB-231; settings: 72 h
Method in brief: as §2

[14] = test system: HCC1143; settings: 72 h; remark: listed apart in the source
Method in brief: as §2

[15] = test system: MDA-MB-436; settings: 72 h; remark: listed apart in the source
Method in brief: as §2

[16] = test system: SK-BR-3; settings: 72 h
Method in brief: as §2

[17] = test system: BT-549; settings: 72 h; remark: listed apart in the source
Method in brief: as §2

| Compound | normalised viability ([1]; 100 nM) | EC50, CellTox Green [2] [µM] | EC50, CellTiter-Blue viability [3] [µM] | EC50, CellTiter-Blue viability [4] [µM] | EC50, CellTiter-Blue viability [5] [µM] | EC50, CellTiter-Blue viability [6] [µM] | EC50, CellTiter-Blue viability [7] [µM] | EC50, CellTiter-Blue viability [8] [µM] | EC50, CellTiter-Glo [9] [µM] | EC50, CellTiter-Glo [10] [µM] | EC50, CellTiter-Glo [11] [µM] | EC50, CellTiter-Glo [12] [µM] | EC50, CellTiter-Glo [13] [µM] | EC50, CellTiter-Glo [14] [µM] | EC50, CellTiter-Glo [15] [µM] | EC50, CellTiter-Glo [16] [µM] | EC50, CellTiter-Glo [17] [µM] | normalised viability ([1]; 10 nM) | normalised viability ([1]; 25 nM) [%] |
| --- | --- | --- | --- | --- | --- | --- | --- | --- | --- | --- | --- | --- | --- | --- | --- | --- | --- | --- | --- |
| COc1ccc(-c2cc3c(C)nc(N)nc3n([C@H]3CC[C@H](OCCO)CC3)c2=O)cn1 | 92.8% | 4.09 | 0.18 | 0.193 | 0.418 | 0.234 | 0.121 | 0.196 | 0.261 | 0.162 | 0.123 | 0.105 | 0.189 | 0.258 | 0.181 | 0.0238 | 0.186 |  |  |
| COc1cc(CCc2cc(NC(=O)c3ccc(N4CC(C)NC(C)C4)cc3)n[nH]2)cc(OC)c1 (stereo unspecified) [AZD4547] |  |  | 0.0466 |  |  |  | 0.27 |  | 0.00591 |  | 0.0688 |  |  |  |  |  | > 1 | 86.9% |  |
| c1cc(CN2CCCNCCNCCCNCC2)ccc1CN1CCCNCCNCCCNCC1 [Plerixafor] |  |  |  |  |  |  |  |  |  |  |  |  |  |  |  |  |  |  | 83.4 |
| Cc1ccc(Nc2nccc(N(C)c3ccc4c(C)n(C)nc4c3)n2)cc1S(N)(=O)=O [Pazopanib] | 85.8% | > 10 | 0.0346 |  |  | 0.107 |  | 8.26 | 0.645 |  |  |  |  |  |  |  | 4.18 |  |  |
| O=C(CCBr)N1CCN(C(=O)CCBr)CC1 [Pipobroman] | 87.8% |  | 6.19 |  |  |  |  |  |  |  |  |  |  |  |  |  |  |  |  |
| CS(=O)(=O)N1CCN(Cc2cc3nc(-c4cccc5[nH]ncc45)nc(N4CCOCC4)c3s2)CC1 [Pictilisib] |  | 2.15 |  |  |  |  |  |  | 1.58 | 1.71 | 3.15 | 1.23 | 2.96 | 2.6 | 6.05 | 0.253 | 1.41 |  |  |
| Cn1cc(CNCC2CCN(c3ncc(C(=O)NO)cn3)CC2)c2ccccc21 [Quisinostat] |  | 0.0185 |  |  |  |  |  |  | 0.0707 | 0.0586 | 0.0742 | 0.0787 | 0.0654 | 0.0215 | 0.0509 | 0.0214 | 0.0818 |  |  |
| CNC(=O)c1cc(Oc2ccc(NC(=O)Nc3ccc(Cl)c(C(F)(F)F)c3)cc2)ccn1 [Sorafenib] |  |  | 0.952 |  |  |  |  | 0.0271 |  |  |  |  |  |  |  |  |  | 101% and 80.6% |  |
| Cc1cccc(-c2nn3c(c2-c2ccnc4ccc(C(N)=O)cc24)CCC3)n1 [Galunisertib] |  |  |  |  |  |  |  |  |  |  |  | > 1 |  |  |  |  |  |  |  |
| Cn1cc(CNCC2CCN(c3ncc(C(=O)NO)cn3)CC2)c2ccccc21 |  |  | 0.0331 | 0.0133 | 0.0186 | 0.279 | 0.0219 | 0.146 |  |  |  |  |  |  |  |  |  | 64.8% |  |
| O=C(NC[C@H](O)CO)c1ccncc1Nc1ccc(I)cc1F | 66% |  |  | 0.421 | 0.00791 |  | 0.756 |  |  |  |  |  |  |  |  |  |  |  |  |
| COc1nc(N)nc2c1ncn2[C@@H]1O[C@H](CO)[C@@H](O)[C@@H]1O [Nelarabine] |  |  |  |  |  |  |  |  |  | > 10 |  |  |  |  | > 10 |  |  |  |  |
| Cc1nc(Nc2ncc(C(=O)Nc3c(C)cccc3Cl)s2)cc(N2CCN(CCO)CC2)n1 [Dasatinib] |  | 0.108 | 0.427 | 0.0563 | 0.0345 | 0.0785 |  | 0.0585 |  | 0.014 | 0.0366 | 0.0127 | 0.0164 | 0.0295 |  |  | 0.0406 |  |  |
| Nc1cccc2c1CN(C1CCC(=O)NC1=O)C2=O (stereo unspecified) [Lenalidomide] | 81.8% and 68% |  |  |  |  |  |  |  |  |  | > 10 |  |  |  |  |  |  |  |  |
| C[C@]12O[C@H](C[C@]1(O)CO)n1c3ccccc3c3c4c(c5c6ccccc6n2c5c31)CNC4=O [Lestaurtinib] |  | 0.356 | 0.133 | 0.0655 | 0.151 | 0.202 | 0.201 | 0.672 | 0.263 | 0.151 | 0.0451 | > 1 | 0.188 | 0.0687 | 0.787 | 0.215 | 0.13 | 113% |  |
| CC(=O)OC[C@H]1O[C@@H]([S-])[C@H](OC(C)=O)[C@@H](OC(C)=O)[C@@H]1OC(C)=O.CCP(CC)CC.[Au+] [Auranofin] |  | 0.917 |  |  |  |  |  |  | 1.46 | 2.39 | 2.49 | 0.199 | 1.01 | 0.559 | 0.56 | 1.73 | 0.386 |  |  |
| O=C1c2c(O)ccc(O)c2C(=O)c2c(NCCNCCO)ccc(NCCNCCO)c21 [Mitoxantrone] |  |  | 0.522 | 0.0159 | 0.0118 | 0.684 | 0.0521 | 0.35 |  |  |  | 0.975 |  | 0.314 | 0.495 |  |  | 66.9% |  |
